Measurements taken from PubChem BioAssay AID2060351 (Molecular Pharmacology Branch, DTP, NCI, 2025).
Values joined by “and” are separate entries in the source; they are usually repeats but may differ in a detail not shown here. Equal values may be shown once.

Tested on: 521955-158-R7-J2-PDC spheroids, viability % test/control
Test: Anticancer human tumor 521955-158-R7-J2-PDC patient-derived pancreatic carcinoma cell line growth inhibition [TAK]
Conditions: spheroids with HUVEC and MSC; for viability, T/C: stronger effect = lower value
Method in brief: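 Drug combinations, each paired with TAK-243 or ipatasertib, were tested on multi-cell spheroids of 60% malignant cells, 25% HUVEC and 15% hMSC. Top concentrations were at or near the clinical Cmax (10 microM if undetermined), decreasing by half-log; viability is given as % test/control.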

[1] = curve of first compound, second compound 0.3 µM
[2] = curve of first compound, second compound 0.949 µM
[3] = curve of first compound, second compound 3 µM
[4] = curve of first compound, second compound 9.49 µM
[5] = curve of first compound, second compound 30 µM
[6] = second compound 0.3 µM, first compound 0.00316 µM
[7] = second compound 0.3 µM, first compound 0.01 µM
[8] = second compound 0.3 µM, first compound 0.0316 µM
[9] = second compound 0.3 µM, first compound 0.1 µM
[10] = second compound 0.949 µM, first compound 0.00316 µM
[11] = second compound 0.949 µM, first compound 0.01 µM
[12] = second compound 0.949 µM, first compound 0.0316 µM
[13] = second compound 0.949 µM, first compound 0.1 µM
[14] = second compound 3 µM, first compound 0.00316 µM
[15] = second compound 3 µM, first compound 0.01 µM
[16] = second compound 3 µM, first compound 0.0316 µM
[17] = second compound 3 µM, first compound 0.1 µM
[18] = second compound 9.49 µM, first compound 0.00316 µM
[19] = second compound 9.49 µM, first compound 0.01 µM
[20] = second compound 9.49 µM, first compound 0.0316 µM
[21] = second compound 9.49 µM, first compound 0.1 µM
[22] = second compound 30 µM, first compound 0.00316 µM
[23] = second compound 30 µM, first compound 0.01 µM
[24] = second compound 30 µM, first compound 0.0316 µM
[25] = second compound 30 µM, first compound 0.1 µM
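Further: spheroids exposed to compound for 7 days before readout.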
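Wherever viability, T/C is given: 100% = DMSO vehicle control wells.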

In the case of `CC(=O)Nc1cccc(-n2c(=O)n(C3CC3)c(=O)c3c(Nc4ccc(I)cc4F)n(C)c(=O)c(C)c32)c1` + CC(C)NCC(C(=O)N1CCN(c2ncnc3c2C(C)CC3O)CC1)c1ccc(Cl)cc1, the IC50 [1] is reported as 1.34 nM, the IC50 [2] is reported as 1.4 nM and the IC50 [3] is reported as 0.802 nM. It also gave an IC50 [4] of 0.763 nM, an IC50 [5] of 0.786 nM and a viability, T/C (second compound 0.3 µM, first compound 94.9 pM) of 98.9%. For the same compound, the viability, T/C (second compound 0.3 µM, first compound 0.0003 µM) was 79.8%, the viability, T/C (second compound 0.3 µM, first compound 0.000949 µM) was 51.1% and the viability, T/C (second compound 0.3 µM, first compound 0.003 µM) was 39.4%. For the same compound, the viability, T/C (second compound 0.3 µM, first compound 0.00949 µM) was 23.8%, the viability, T/C (second compound 0.3 µM, first compound 0.03 µM) was 11.7% and the viability, T/C (second compound 0.949 µM, first compound 94.9 pM) was 106%. For the same compound, the viability, T/C (second compound 0.949 µM, first compound 0.0003 µM) was 83.6%, the viability, T/C (second compound 0.949 µM, first compound 0.000949 µM) was 50.4% and the viability, T/C (second compound 0.949 µM, first compound 0.003 µM) was 39.7%. It also gave a viability, T/C (second compound 0.949 µM, first compound 0.00949 µM) of 24.9%, a viability, T/C (second compound 0.949 µM, first compound 0.03 µM) of 10.5% and a viability, T/C (second compound 3 µM, first compound 94.9 pM) of 99.6%. For the same compound, the viability, T/C (second compound 3 µM, first compound 0.0003 µM) was 61.7%, the viability, T/C (second compound 3 µM, first compound 0.000949 µM) was 50.2% and the viability, T/C (second compound 3 µM, first compound 0.003 µM) was 31.8%. It also gave a viability, T/C (second compound 3 µM, first compound 0.00949 µM) of 23%, a viability, T/C (second compound 3 µM, first compound 0.03 µM) of 8.8% and a viability, T/C (second compound 9.49 µM, first compound 94.9 pM) of 82.7%. The viability, T/C (second compound 9.49 µM, first compound 0.0003 µM) was 68.7%, the viability, T/C (second compound 9.49 µM, first compound 0.000949 µM) was 40.3% and the viability, T/C (second compound 9.49 µM, first compound 0.003 µM) was 32.1%. The viability, T/C (second compound 9.49 µM, first compound 0.00949 µM) was 25%, the viability, T/C (second compound 9.49 µM, first compound 0.03 µM) was 7.94% and the viability, T/C (second compound 30 µM, first compound 94.9 pM) was 93.1%. For the same compound, the viability, T/C (second compound 30 µM, first compound 0.0003 µM) was 61.4%, the viability, T/C (second compound 30 µM, first compound 0.000949 µM) was 44.3% and the viability, T/C (second compound 30 µM, first compound 0.003 µM) was 35.5%. It also gave a viability, T/C (second compound 30 µM, first compound 0.00949 µM) of 20.4% and a viability, T/C (second compound 30 µM, first compound 0.03 µM) of 4.94%.

With `CC(C)(C)c1nc(-c2cccc(NS(=O)(=O)c3c(F)cccc3F)c2F)c(-c2ccnc(N)n2)s1` the viability, T/C (compound 0.0316 µM) was 105% and 103%, the viability, T/C (compound 0.1 µM) was 113% and 78.3% and the viability, T/C (compound 0.316 µM) was 99% and 128%. The viability, T/C (compound 1 µM) was 101% and 131%, the viability, T/C (compound 3.16 µM) was 104% and 97.7% and the viability, T/C (compound 10 µM) was 79% and 93.3%. The IC50 (curve of compound) was > 10000 nM.

In the case of `COc1c(OCCCN2CCOCC2)ccc2c3n(c(=NC(=O)c4cnc(N)nc4)nc12)CCN3` + CC(C)NCC(C(=O)N1CCN(c2ncnc3c2C(C)CC3O)CC1)c1ccc(Cl)cc1, the IC50 [1] is reported as 21.9 nM, the IC50 [2] is reported as 22 nM and the IC50 [3] is reported as 7.21 nM. It also gave an IC50 [4] of 6.2 nM, an IC50 [5] of 3.38 nM and a viability, T/C [6] of 102%. It also gave a viability, T/C [7] of 67.6%, a viability, T/C [8] of 40.9% and a viability, T/C [9] of 27.5%. For the same compound, the viability, T/C (second compound 0.3 µM, first compound 0.316 µM) was 13.7%, the viability, T/C (second compound 0.3 µM, first compound 1 µM) was 11% and the viability, T/C [10] was 81%. The viability, T/C [11] was 66.5%, the viability, T/C [12] was 43.1% and the viability, T/C [13] was 19.6%. The viability, T/C (second compound 0.949 µM, first compound 0.316 µM) was 13.7%, the viability, T/C (second compound 0.949 µM, first compound 1 µM) was 9.02% and the viability, T/C [14] was 55%. For the same compound, the viability, T/C [15] was 51.1%, the viability, T/C [16] was 29.2% and the viability, T/C [17] was 24.9%. It also gave a viability, T/C (second compound 3 µM, first compound 0.316 µM) of 13%, a viability, T/C (second compound 3 µM, first compound 1 µM) of 10.4% and a viability, T/C [18] of 64.3%. It also gave a viability, T/C [19] of 36.3%, a viability, T/C [20] of 31% and a viability, T/C [21] of 21.7%. It also gave a viability, T/C (second compound 9.49 µM, first compound 0.316 µM) of 14.3%, a viability, T/C (second compound 9.49 µM, first compound 1 µM) of 12.2% and a viability, T/C [22] of 50.4%. The viability, T/C [23] was 40.6%, the viability, T/C [24] was 27.8% and the viability, T/C [25] was 19.8%. It also gave a viability, T/C (second compound 30 µM, first compound 0.316 µM) of 17.1% and a viability, T/C (second compound 30 µM, first compound 1 µM) of 11.5%.

`CC(C)n1nc(-c2ccc3oc(N)nc3c2)c2c(N)ncnc21` + CC(C)NCC(C(=O)N1CCN(c2ncnc3c2C(C)CC3O)CC1)c1ccc(Cl)cc1 was tested, and the IC50 [1] was > 100 nM, the IC50 [2] was > 100 nM and the IC50 [3] was > 100 nM. The IC50 [4] was > 100 nM, the IC50 [5] was > 100 nM and the viability, T/C (second compound 0.3 µM, first compound 0.000316 µM) was 112%. For the same compound, the viability, T/C (second compound 0.3 µM, first compound 0.001 µM) was 74.7%, the viability, T/C [6] was 78.8% and the viability, T/C [7] was 134%. It also gave a viability, T/C [8] of 98.1%, a viability, T/C [9] of 69% and a viability, T/C (second compound 0.949 µM, first compound 0.000316 µM) of 118%. It also gave a viability, T/C (second compound 0.949 µM, first compound 0.001 µM) of 84.9%, a viability, T/C [10] of 100% and a viability, T/C [11] of 75.3%. For the same compound, the viability, T/C [12] was 99%, the viability, T/C [13] was 100% and the viability, T/C (second compound 3 µM, first compound 0.000316 µM) was 91.3%. The viability, T/C (second compound 3 µM, first compound 0.001 µM) was 105%, the viability, T/C [14] was 86.8% and the viability, T/C [15] was 94.3%. The viability, T/C [16] was 132%, the viability, T/C [17] was 120% and the viability, T/C (second compound 9.49 µM, first compound 0.000316 µM) was 89.9%. The viability, T/C (second compound 9.49 µM, first compound 0.001 µM) was 98.3%, the viability, T/C [18] was 83.9% and the viability, T/C [19] was 113%. The viability, T/C [20] was 120%, the viability, T/C [21] was 106% and the viability, T/C (second compound 30 µM, first compound 0.000316 µM) was 102%. The viability, T/C (second compound 30 µM, first compound 0.001 µM) was 115%, the viability, T/C [22] was 103% and the viability, T/C [23] was 127%. The viability, T/C [24] was 117% and the viability, T/C [25] was 80%.

In the case of `CC(C)NCC(C(=O)N1CCN(c2ncnc3c2C(C)CC3O)CC1)c1ccc(Cl)cc1` (centres undefined), the viability, T/C (compound 30 µM) is reported as 84.2% [middle of 10 runs] and the IC50 (compound alone, run of 02/20/2020) is reported as > 30000 nM.
